Assay results reported in US20150086509A1, “COMPOSITIONS AND METHODS FOR TREATING CANCER USING INTERFERON AND MAPK PATHWAY INHIBITOR” (The Trustees of Columbia University in the City of New York, priority 2013, published 2015).
“Also recorded” adds a separate entry of the source.

Key:
Assay type in all cases: cell-based, human
high pSTAT1 cell line = assay: Cytotoxicity of IFN by SubG1 percentage; settings: 48 hours after treatment
Experimental: The cytotoxicity of IFN was assessed in high pSTAT1 cell line, 48 hours after treatment using SubG1 percentage. […] Cells plated in 6 well plates, 200K cells/well, in 2 mL of growth media. […] 50K cells per well were plated in 6-well plates with 2 mL of media and treated 24 hours later. Cells were counted every 24 hours up to 72 hours. C. […] Cells were plated in 6 well plates, 200K cells/well with 2 mL media.

[1] = system: Ma1Me3M, a BRAF-V600E cell line; assay: Comparison of BRAF and MEK inhibition, transcriptional response (Illumina HumanHT-12 microarrays)
Experimental: We assessed expression fold change at 1 hour, 2, 4, and 8 hours following treatment using Illumina HumanHT-12 microarrays.
Illumina's probe pvalues were used to filter out probes. Probes with p-value>0.05 in more than half of the samples were removed. Then microarrays were normalized according to their 75% percentile values. The 2 control array were averaged, and treated samples were compared to the averaged control to assess fold change.

[2] = system: melanoma cell lines (low- and high-pSTAT1); assay: Apoptosis assessed by TUNEL staining 72 h after treatment; settings: PD325901 50 nM
Experimental: (§1) Control samples were collected untreated at time of treatment.
Apoptosis was assessed by TUNEL staining Cells were plated in 6-well plates at 200K cells/well. […] TUNEL was performed using Invitrogen BrdU TUNEL kit.

[3] = system: pSTAT1 (interferon-STAT1 pathway); assay: Western blots of pSTAT1 levels; settings: low- and high-pSTAT1 cell lines
Experimental: as §1
(§2) Samples for protein analysis were lysed using RIPA buffer. Protein concentration was assessed using BCA staining Samples were then normalized to a fixed concentration and mixed with a 5× glycerol/SDS/DTT loading buffer. Lysates were run on gradient (4-12%) Bis-Tris gels. After incubation with horseradish peroxidase-conjugated secondary antibodies, proteins were detected using chemiluminescence.

[4] = system: intrinsic apoptotic pathway (cytochrome C release); assay: Cytochrome C release from the mitochondria
Experimental: Cytochrome C release was assessed on fresh unfrozen pellets using Sucrose/Mannitol buffer (Majewski et al., 2004). Full details in the supplementary material.
Protocol for Cytochrome C release is taken, as is, from Majewski et al 2004. Lysis buffer: 20 mM Hepes-KOH, [pH 7.5], 210 mM sucrose, and 70 mM mannitol; 1.5 mM MgCl2, 10 mM […], protease inhibitor, and 1 mg digitonin/1 mL lysis buffer.
Cells are trypsinized, collected and spun down in 4C. They are then washed with PBS and spun down again. It is critical that cell pellets will be lysed immediately without freezing. Cells are gently suspended, without vortexing, in lysis buffer. Roughly double the cell pellet volume is used. They are incubated in 25C for 3-10 min, depending all cell line. Spun down at 4C for 20 minutes at highest speed. Supernatant contains cytoplasmic fraction.

[5] = system: caspase pathway (caspases 9, 7 and 3); assay: Cleaved caspases by Western blot; settings: MEK inhibition
Experimental: as §1, §2

## IFNα
High pSTAT1 cell line
  cytotoxic / apoptotic effect of IFN (SubG1 percentage): weaker cytotoxic effect than IFNβ; also recorded: dose-dependent effects

## CCCS(=O)(=O)Nc1ccc(F)c(C(=O)c2c[nH]c3ncc(Cl)cc23)c1F [PLX4720]
[1]; 2 uM PLX4720 vs 50 nM PD325901, BRAF-V600E cell line
  transcriptional response compared with the MEK inhibitor PD325901: almost identical transcriptional response
[1]; Ma1Me3M, all time points (1, 2, 4, 8 hours)
  difference in gene expression fold change between MEKi and BRAFi treatments: ≤ 0.5 fold (on a log 2 scale)

## O=C(NOC[C@H](O)CO)c1ccc(F)c(F)c1Nc1ccc(I)cc1F [PD325901]
[2]; high-pSTAT1 cell lines
  cytotoxic effect of MEK inhibition alone (TUNEL): only mild response
[2]; high-pSTAT1 cell lines, listed as MEK inhibition
  cytotoxic effect of MEK inhibition alone (TUNEL): mostly resistant
[2]; low-pSTAT1 cell lines
  cytotoxic effect of MEK inhibition alone (TUNEL): sensitive
[3]
  pSTAT1 levels after treatment: increase in pSTAT1 levels
[4]; MEKi
  time of cytochrome C release after treatment: approx. 36 hours
[4]; MEKi alone, all cell lines
  cytochrome C release: activates the intrinsic apoptotic pathway by cytochrome C release
[5]; high-pSTAT1 cell lines
  cleavage/activation of caspase 7 and 9: not cleaved
[5]; low pSTAT1 cell lines
  cleavage/activation of caspase 7 and 9: cleaved and activated
